Results reported in article PMC12064818, “A general assay platform to study protein pharmacology using ligand-dependent structural dynamics” (Nature Communications, 2025).

What was measured:
[1] = biological target: T1, FLuc-C-NLuc (firefly luciferase) (Photinus pyralis, UniProt P08659, form not given/L550V); assay: SDR assay, FLuc-C-NLuc; settings: Log[Compound]; for SDR+ATP: 10 mM ATP; for SDR: absence of ATP
[2] = biological target: T1, FLuc-C-NLuc (firefly luciferase); assay: Firefly luciferase (FLuc) enzymatic luminescence assay, FLuc-C-NLuc; format: biochemical; set-up: key to Enz: % normalized; no enzyme control = 100% inhibition, DMSO = 0; settings: Log[Compound]
Experimental: The enzyme activity of FLuc-N-HiBiT, FLuc-C-HiBiT, and FLuc-C-NLuc was measured similar to P. pyralis firefly luciferase (FLuc) as previously described. […] Compounds and controls were added to each plate as described in Supplementary Data 8 with a Hornet pintool system (Wako Automation). Compounds were incubated with respective enzymes for 30–60 min at room temperature protected from light and covered by solid metal lid to prevent evaporation. […] Luciferin was incubated with FLuc enzyme for 5 min before FLuc activity was then measured on a ViewLux CCD imager (PerkinElmer), with exposure times up to ten seconds with medium to high gain settings. Data were normalized to average no enzyme control as 100% enzyme inhibition and average DMSO neutral control. See Supplementary Table 4 for additional details.
Supplementary Table 4. Protocol for Firefly luciferase (FLuc) and NanoLuc (NLuc) enzymatic
Supplementary Table 4: Protocol for Firefly luciferase (FLuc) and NanoLuc (NLuc) enzym atic lum inescence assay
Firefly luciferase (FLuc) enzym atic lum inescence assay
Sequence Param eter Value Description
No enzym e control (colum n 1) and enzym e solution (1- 10 nM FLuc enzym e) in FLuc assay
1 Reagent 4 µLbuffer; white/solid bottom , m edium bind, high base plates (Greiner), dispensed with BioRaptr
com pounds transferred to respective colum ns with Pintool
2b Test Com pounds 23 nLconcentration range) in colum ns 5- 48; com pounds transferred to respective wells with
3 Incubation 30 m in Incubate enzym e + com pounds at am bient tem p for 30 m in, protected from light
4 Reagent 3 µLAdd 3 µL of D-luciferin substrate solution to each well (final concentration 10 µM); dispensed
5 Detector ViewLux Read plate lum inescence (Exposure = 1- 10 sec; Gain = Medium -high; Speed = Slow;
Dispensing solution was diluted in 1X PBS, pH 7.4. […]

[3] = biological target: FLuc-N-HiBiT (firefly luciferase) (Photinus pyralis, UniProt P08659, form not given/L550V); assay: SDR assay, FLuc-N-HiBiT; settings: ATP-independent pyrazolo pyrimidine (clade P)
PKA = settings: annotation yes/no for kinase library compound; source not given; cited from earlier work
PKA-N-HiBiT = PKA-N-HiBiT (Homo sapiens, UniProt P17612); assay: SDR assay, PKA-N-HiBiT; settings: read-out: SDR Ave Max Response
[4] = biological target: T2, ABL1-N-HiBiT kinase domain (Homo sapiens, UniProt P00519); assay: SDR assay, ABL1-N-HiBiT
T2 sequence (P00519 233-500): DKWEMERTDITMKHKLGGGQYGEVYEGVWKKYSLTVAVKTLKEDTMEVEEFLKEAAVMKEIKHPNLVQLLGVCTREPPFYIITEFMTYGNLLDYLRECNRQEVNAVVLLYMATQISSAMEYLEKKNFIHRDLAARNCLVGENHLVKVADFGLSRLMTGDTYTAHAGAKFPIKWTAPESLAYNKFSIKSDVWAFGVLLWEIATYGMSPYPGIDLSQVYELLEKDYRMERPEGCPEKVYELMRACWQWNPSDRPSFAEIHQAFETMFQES

T1 sequence (P08659 2-550 L550V, form open): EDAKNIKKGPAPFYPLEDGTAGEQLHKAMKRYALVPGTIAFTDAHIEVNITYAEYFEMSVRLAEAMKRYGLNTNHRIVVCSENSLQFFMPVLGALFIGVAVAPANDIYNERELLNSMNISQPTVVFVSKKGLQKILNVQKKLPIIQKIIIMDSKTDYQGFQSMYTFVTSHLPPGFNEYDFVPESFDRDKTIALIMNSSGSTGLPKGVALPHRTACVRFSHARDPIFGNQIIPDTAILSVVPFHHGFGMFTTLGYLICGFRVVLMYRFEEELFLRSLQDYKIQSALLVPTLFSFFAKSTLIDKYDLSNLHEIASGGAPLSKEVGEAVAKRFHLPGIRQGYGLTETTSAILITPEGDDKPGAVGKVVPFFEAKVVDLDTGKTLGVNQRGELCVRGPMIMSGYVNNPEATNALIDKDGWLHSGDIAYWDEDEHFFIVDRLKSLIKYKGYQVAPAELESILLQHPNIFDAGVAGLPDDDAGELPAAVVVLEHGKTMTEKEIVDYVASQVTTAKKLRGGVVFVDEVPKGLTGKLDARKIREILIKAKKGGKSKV
FLuc-N-HiBiT (firefly luciferase), sequence (P08659 2-550 L550V, form open): as above

| SMILES | SDR+ATP ([1]; M -4.48) | SDR ([1]; M -4.48) | SDR+ATP ([1]; M -4.96) | SDR ([1]; M -4.96) | SDR+ATP ([1]; M -5.44) | SDR ([1]; M -5.44) | SDR+ATP ([1]; M -5.91) | SDR ([1]; M -5.91) | SDR+ATP ([1]; M -6.39) | SDR ([1]; M -6.39) | SDR+ATP ([1]; M -6.87) | SDR ([1]; M -6.87) | SDR+ATP ([1]; M -7.35) | SDR ([1]; M -7.35) | SDR+ATP ([1]; M -7.82) | SDR ([1]; M -7.82) | SDR+ATP ([1]; M -8.30) | SDR ([1]; M -8.30) | SDR+ATP ([1]; M -8.78) | SDR ([1]; M -8.78) | also measured |
| --- | --- | --- | --- | --- | --- | --- | --- | --- | --- | --- | --- | --- | --- | --- | --- | --- | --- | --- | --- | --- | --- |
| CC1CCC(NC(=O)C2CCN(C(=O)c3ncn4c3COC(c3ccc(Cl)cc3)C4)CC2)CC1 (stereo not shown) [NCGC00449845] | 6.40 | 1.49 | 2.52 | 2.34 | 1.90 | 1.62 | 1.22 | 2.01 | 1.15 | 2.08 | -0.36 | 2.37 | 0.68 | 2.03 | -0.0316 | 3.50 | 1.78 | 4.33 | 0.25 | 3.88 | SDR+ATP ([1]; M -9.25): 0.08; SDR ([1]; M -9.25): 3.41; Enz ([2]; M -4.48): -0.56; Enz ([2]; M -4.96): 2.86; Enz ([2]; M -5.44): 3.07; Enz ([2]; M -5.91): 4.57; Enz ([2]; M -6.39): 5.59; Enz ([2]; M -6.87): 3.54; Enz ([2]; M -7.35): 4.64; Enz ([2]; M -7.82): 4.98; Enz ([2]; M -8.30): 5.03; Enz ([2]; M -8.78): 3.56; Enz ([2]; M -9.25): 2.70 |
| O=C(Nc1cccc(F)c1)C1CCN(C(=O)c2ncn3c2COC(c2ccccc2)C3)CC1 (stereo not shown) [NCGC00449914] | 74.59 | 9.87 | 66.41 | 8.14 | 59.05 | 7.78 | 45.60 | 15.68 | 30.44 | 7.72 | 16.83 | 9.23 | 11.29 | 8.67 | 8.00 | 8.73 | 7.51 | 7.88 | 6.04 | 10.30 | SDR+ATP ([1]; M -9.25): 5.78; SDR ([1]; M -9.25): 9.59; Enz ([2]; M -4.48): -94.95; Enz ([2]; M -4.96): -88.02; Enz ([2]; M -5.44): -77.30; Enz ([2]; M -5.91): -54.79; Enz ([2]; M -6.39): -35.39; Enz ([2]; M -6.87): -17.29; Enz ([2]; M -7.35): -8.21; Enz ([2]; M -7.82): -6.89; Enz ([2]; M -8.30): -1.14; Enz ([2]; M -8.78): 0.15; Enz ([2]; M -9.25): -6.05 |
| COc1ccc(NC(=O)C2CCN(C(=O)c3ncn4c3COC(c3ccccc3)C4)CC2)cc1Cl (stereo not shown) [NCGC00449919] | 74.73 | 14.81 | 70.92 | 15.10 | 66.79 | 16.90 | 50.80 | 12.53 | 35.23 | 11.82 | 18.65 | 11.53 | 11.38 | 9.61 | 10.88 | 14.00 | 10.09 | 12.41 | 7.62 | 12.26 | SDR+ATP ([1]; M -9.25): 7.37; SDR ([1]; M -9.25): 12.55; Enz ([2]; M -4.48): -93.84; Enz ([2]; M -4.96): -85.33; Enz ([2]; M -5.44): -72.77; Enz ([2]; M -5.91): -49.98; Enz ([2]; M -6.39): -32.08; Enz ([2]; M -6.87): -7.65; Enz ([2]; M -7.35): -0.43; Enz ([2]; M -7.82): 7.65; Enz ([2]; M -8.30): 6.82; Enz ([2]; M -8.78): 6.26; Enz ([2]; M -9.25): 2.02 |
| O=c1cc(N2CCOCC2)nc2c3ccccc3ccn12 [Compound 401] |  |  |  |  |  |  |  |  |  |  |  |  |  |  |  |  |  |  |  |  | pSDR50 (clade P) [3]: 4.78; % Activity (max response) ([3]; SDR): 29.04%; Annotated PKA activity (PKA): no; Emax (PKA-N-HiBiT): 0.18%; EC50 ([4]; ABL1 SDR pSDR50, ABL1, SDR, heatmap data, 128 kinase inhibitors): 7.41 µM; EC50 ([4]; SDR Ave SDR50, ABL1-N-HiBiT qHTS, average, unit inferred): 7.6 µM; Emax ([4]; read-out: SDR Ave Max Response): 22.9% |
